# Source: patent publication US20140296153A1, “Oligodendrocyte Differentiation” (priority 2011, published 2014)
# Legend:
# SVZ cells = assay: BrdU cell proliferation study in SVZ cell cultures; type: cell-based, mouse; conditions: 48 hours, BrdU last 4 hours
# Experimental: SVZ cell cultures were obtained from early postnatal (P1-3) C57B1/6 donor mice as described previously.
# Brains were removed following decapitation and placed in HBSS solution (Gibco, Carlsbad, Calif., USA). Fragments of SVZ were dissected out of 450 μm thick coronal brain sections, digested in 0.025% trypsin and 0.265 mM EDTA (Gibco), and dissociated by gentle mixing. The cell suspension was diluted in serum-free culture medium (SFM) composed of Dulbecco's modified eagle medium (D-MEM/F12 Gluta-MAX™-I, Gibco) supplemented with 100 U/mL penicillin, 100 μg/mL streptomycin (Gibco), 1% B27 (Gibco), 10 ng/mL epidermal growth factor (EGF; Gibco), and 5 ng/mL basic fibroblast growth factor (FGF-2, Gibco). Single cells were then plated on uncoated Petri dishes at a density of 3000 cells/cm^2. […]
# Fluorescence images were recorded using an LSM 510 Meta confocal microscope or an Axioskop 2 Plus fluorescence microscope (both from Carl Zeiss). […] Percentages of TUNEL or BrdU immunoreactive cells in SVZ cell cultures were calculated from cell counts in five independent microscopic fields in each coverslip with a x40 objective (approximately 200 cells per field). […] For SCCl experiments, the percentage of oligodendrocytic-like responding cells (with a Thromb/Hist ratio above 1.3) was calculated on the basis of one microscopic field per coverslip, containing approximately 100 cells (magnification, ×40). […]
# CB1R = CB1R (Homo sapiens, UniProt P21554); conditions: cited from earlier work
# Olig2 = assay: Western blotting analysis of Olig2; type: cell-based, mouse; conditions: 7 days, n=8
# Experimental: Western blotting analysis of Olig2 was performed from 6- to 8-days-old neurospheres that were plated onto six-well plates previously coated with poly-D-lysine, and that were allowed to adhere for 48 h in the presence of SFM, and treated in the absence (control) or in the presence of Hp and/or AM251 for 7 days. For the evaluation of Olig2 protein levels in control versus Hp-treated condition, the medium was renewed after 48 h. Seven days after the first treatment, the cells were washed with 0.15M phosphate-buffered saline (PBS) and harvested by scraping in the lysis buffer [0.15 M NaCl, 0.05 M Tris-base, 5 mM EGTA, 1% Triton X-100, 0.5% DOC, 0.1% SDS, 10 mM dithiothreitol (DTT), containing a protease inhibitor cocktail tablet (Roche Diagnostics GmbH, Germany), pH7.4 at 4° C.].
# The supernatant was collected after centrifugation at 14 000 rpm for 10 min, at 4° C. Protein concentration was measured by the BCA method and samples were treated with SDS-PAGE sample buffer [6× concentrated: 350 mM Tris, 10% (w/v) SDS, 30% (v/v) glycerol, 0.6 M DTT, 0.06% (w/v) bromophenol blue], boiled 5 min at 95° C., and stored at −20° C. until use for Western blotting analysis. […]
# Sequence of CB1R (P21554 whole entry): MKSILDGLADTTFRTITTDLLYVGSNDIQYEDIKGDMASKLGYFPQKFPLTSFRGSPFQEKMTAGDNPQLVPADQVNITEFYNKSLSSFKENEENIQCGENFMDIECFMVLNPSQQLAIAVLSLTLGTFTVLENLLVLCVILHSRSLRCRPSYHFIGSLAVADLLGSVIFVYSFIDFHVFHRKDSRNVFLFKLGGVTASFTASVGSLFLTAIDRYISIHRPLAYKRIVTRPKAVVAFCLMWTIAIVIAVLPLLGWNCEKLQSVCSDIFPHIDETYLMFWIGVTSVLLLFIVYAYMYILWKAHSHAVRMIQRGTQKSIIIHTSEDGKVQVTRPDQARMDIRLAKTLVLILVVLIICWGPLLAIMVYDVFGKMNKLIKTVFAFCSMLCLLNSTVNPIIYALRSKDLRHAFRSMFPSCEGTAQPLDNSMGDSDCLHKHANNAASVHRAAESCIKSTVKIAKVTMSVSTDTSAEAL
smiles,measurement,setting,value
"CC(C)C[C@H](NC(=O)[C@H](Cc1ccccc1)NC(=O)[C@H](CCCCN)NC(=O)[C@H](Cc1ccccc1)NC(=O)[C@H](CC(N)=O)NC(=O)[C@@H](NC(=O)[C@@H]1CCCN1)C(C)C)C(=O)N[C@@H](CO)C(=O)N[C@@H](Cc1cnc[nH]1)C(=O)O [Hp, PVNFKFLSH]",percentage of BrdU-positive cells,SVZ cells; 1 μM,4.70±0.53%
same,percentage of BrdU-positive cells,SVZ cells; Hp 100 nM,4.01±0.81%
same,activity at CB1R cannabinoid receptors,CB1R,CB1R receptor selective antagonist
same,"Olig2 protein levels normalized to β-actin, relative to control (100%)",Olig2; Hp 100 nM,136.9±10.94%
same,"Olig2 protein levels normalized to β-actin, relative to control (100%)",Olig2; Hp 1 μM,158.7±23.62%
